Measurements as given in ChEMBL document CHEMBL1138209, “Scaffold of the cyclooxygenase-2 (COX-2) inhibitor carprofen provides Alzheimer gamma-secretase modulators” (J Med Chem, 2006).
pEC50, pIC50: −log10 of the molar value. Calls of active or inactive are those of the source. The rule behind the calls is not given here.

Key:
[1] = Inhibition of beta amyloid protein 38 in human H4 cells overexpressing APP695; format: cell-based
[2] = Inhibition of beta amyloid protein 40 in human H4 cells overexpressing APP695; format: cell-based
[3] = Inhibition of beta amyloid protein 42 in human H4 cells overexpressing APP695; format: cell-based
H4 [4] = assay: Increase in beta amyloid protein 38 in human H4 cells overexpressing APP695 at 40 uM; format: cell-based
H4 [5] = assay: Increase in beta amyloid protein 38 in human H4 cells overexpressing APP695 at 200 uM; format: cell-based
H4 [6] = assay: Cytotoxicity against human H4 cells at 40 uM; format: cell-based; settings: h4, 40 µM
[7] = biological target: Prostaglandin G/H synthase 1 (Homo sapiens) (UniProt P23219); assay: Activity at COX1 at 10 uM
Chain of Prostaglandin G/H synthase 1 (Homo sapiens) (P23219 whole entry): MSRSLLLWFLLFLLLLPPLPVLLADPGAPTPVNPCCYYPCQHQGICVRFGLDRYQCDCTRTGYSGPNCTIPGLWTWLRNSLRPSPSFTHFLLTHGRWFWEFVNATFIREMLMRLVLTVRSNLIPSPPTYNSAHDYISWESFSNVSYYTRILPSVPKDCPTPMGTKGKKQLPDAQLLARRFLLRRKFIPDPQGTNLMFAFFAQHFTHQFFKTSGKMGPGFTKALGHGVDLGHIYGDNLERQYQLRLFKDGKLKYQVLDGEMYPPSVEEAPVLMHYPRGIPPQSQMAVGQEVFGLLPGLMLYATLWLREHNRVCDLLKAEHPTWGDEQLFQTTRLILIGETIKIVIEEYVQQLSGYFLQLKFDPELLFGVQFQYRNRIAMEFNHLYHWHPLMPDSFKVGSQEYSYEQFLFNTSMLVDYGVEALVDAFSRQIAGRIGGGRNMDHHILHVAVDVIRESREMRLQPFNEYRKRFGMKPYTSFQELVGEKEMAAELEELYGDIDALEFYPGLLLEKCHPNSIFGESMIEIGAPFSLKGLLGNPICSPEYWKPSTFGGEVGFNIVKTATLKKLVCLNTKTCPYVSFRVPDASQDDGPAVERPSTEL

H4 [8] = assay: Increase in beta amyloid protein 38 in human H4 cells overexpressing APP695 at 150 uM; format: cell-based
H4 [9] = assay: Increase in beta amyloid protein 38 in human H4 cells overexpressing APP695 at 160 uM; format: cell-based

| pIC50 [2] | pIC50 [3] | SMILES | Activity (H4 [4]) | other results |
| --- | --- | --- | --- | --- |
| < 4.40 | 5.52 | CCCCCCCCCn1c2ccc(Cl)cc2c2ccc(C(C)C(=O)O)cc21 (configuration not stated) | – | pEC50 [1]: 5.09 |
| – | 4.41 | CC(C(=O)O)c1ccc2c3cc(Cl)ccc3n(S(=O)(=O)c3cccc([N+](=O)[O-])c3)c2c1 (configuration not stated) | inactive | – |
| – | < 4.40 | CC(C(=O)O)c1ccc2c3cc(Cl)ccc3n(S(=O)(=O)c3cccc(F)c3)c2c1 (configuration not stated) | inactive | – |
| – | < 4.40 | CC(C(=O)O)c1ccc2c3cc(Cl)ccc3n(S(=O)(=O)c3ccc([N+](=O)[O-])cc3)c2c1 (configuration not stated) | inactive | – |
| – | < 4.40 | CC(C(=O)O)c1ccc2c3cc(Cl)ccc3n(S(=O)(=O)c3cc(F)cc(F)c3)c2c1 (configuration not stated) | inactive | – |
| – | < 4.40 | CC(C(=O)O)c1ccc2c3cc(Cl)ccc3n(S(=O)(=O)c3ccccc3)c2c1 (configuration not stated) | inactive | – |
| < 4.00 | 4.25 | Cc1ccc(S(=O)(=O)n2c3ccc(Cl)cc3c3ccc(C(C)C(=O)O)cc32)cc1 (configuration not stated) | – | pEC50 [1]: 4.37; Activity (H4 [5]): inactive |
| – | 4.43 | CC(C(=O)O)c1ccc2c3cc(Cl)ccc3n(S(=O)(=O)c3ccc(-c4ccccc4)cc3)c2c1 (configuration not stated) | inactive | – |
| < 4.70 | 5.07 | CC(C)c1cc(C(C)C)c(S(=O)(=O)n2c3ccc(Cl)cc3c3ccc(C(C)C(=O)O)cc32)c(C(C)C)c1 (configuration not stated) | – | pEC50 [1]: 5.03; Activity (H4 [6]): Toxic |
| < 4.40 | 4.60 | CCCCCCCCS(=O)(=O)n1c2ccc(Cl)cc2c2ccc(C(C)C(=O)O)cc21 (configuration not stated) | inactive | – |
| < 4.40 | 5.12 | CC(C(=O)O)c1ccc2c3cc(Cl)ccc3n(Cc3cccc(OC(F)(F)F)c3)c2c1 (configuration not stated) | inactive | – |
| < 4.40 | 5.54 | CCCCCCCCCCn1c2ccc(Cl)cc2c2ccc(C(C)C(=O)O)cc21 (configuration not stated) | – | pEC50 [1]: 5.24; Activity [7]: inactive |
| – | < 4.40 | CC(C(=O)O)c1ccc2c3cc(Cl)ccc3n(S(=O)(=O)c3ccccc3F)c2c1 (configuration not stated) | inactive | – |
| – | 4.40 | CC(C(=O)O)c1ccc2c3cc(Cl)ccc3n(S(=O)(=O)c3ccccc3Br)c2c1 (configuration not stated) | inactive | – |
| < 4.52 | 4.96 | CC(C(=O)O)c1ccc2c3cc(Cl)ccc3n(S(=O)(=O)c3cc(C(F)(F)F)cc(C(F)(F)F)c3)c2c1 (configuration not stated) | – | Activity (H4 [5]): inactive |
| – | < 4.40 | CC(C(=O)O)c1ccc2c3cc(Cl)ccc3n(S(=O)(=O)c3ccc(Br)cc3)c2c1 (configuration not stated) | inactive | – |
| – | < 4.40 | CC(C(=O)O)c1ccc2c3cc(Cl)ccc3n(S(=O)(=O)c3ccc(Cl)cc3)c2c1 (configuration not stated) | inactive | – |
| – | < 4.40 | CC(C(=O)O)c1ccc2c3cc(Cl)ccc3n(S(=O)(=O)c3cc(Br)c(Br)s3)c2c1 (configuration not stated) | inactive | – |
| – | < 4.40 | CC(C(=O)O)c1ccc2c3cc(Cl)ccc3n(S(=O)(=O)c3cccc(Cl)c3)c2c1 (configuration not stated) | inactive | – |
| < 4.40 | 5.16 | CCCCCCCCn1c2ccc(Cl)cc2c2ccc(C(C)C(=O)O)cc21 (configuration not stated) | inactive | – |
| – | < 4.40 | CC(C(=O)O)c1ccc2c3cc(Cl)ccc3n(S(=O)(=O)c3ccc(C#N)cc3)c2c1 (configuration not stated) | inactive | – |
| < 3.82 | 4.06 | CC(C(=O)O)c1ccc2c3cc(Cl)ccc3n(Cc3cccc(NC(=O)CCCC[C@@H]4SC[C@@H]5NC(=O)N[C@@H]54)c3)c2c1 (some centres not stated) | – | Activity (H4 [8]): inactive; Activity (H4 [6]): Toxic |
| < 4.40 | < 4.40 | CCCc1ccc(S(=O)(=O)n2c3ccc(Cl)cc3c3ccc(C(C)C(=O)O)cc32)cc1 (configuration not stated) | inactive | – |
| – | < 4.40 | CC(C(=O)O)c1ccc2c3cc(Cl)ccc3n(S(=O)(=O)c3ccc(F)cc3)c2c1 (configuration not stated) | inactive | – |
| < 4.40 | 4.66 | CC(C(=O)O)c1ccc2c3cc(Cl)ccc3n(Cc3cccc([N+](=O)[O-])c3)c2c1 (configuration not stated) | inactive | – |
| 3.88 | 4.12 | CC(C(=O)O)c1ccc2c(c1)[nH]c1ccc(Cl)cc12 (racemic) [CARPROFEN] | – | pIC50 [1]: 4.11; Activity (H4 [9]): inactive |
| < 4.40 | 4.41 | COc1cccc(Cn2c3ccc(Cl)cc3c3ccc(C(C)C(=O)O)cc32)c1 (configuration not stated) | inactive | – |
